The source of these data is patent US12565501B2, “Muscarinic acetylcholine M1 receptor antagonists” (Contineum Therapeutics, Inc., priority 2019, dated 2026).

The target of the experiment is T1, human M1 receptor (Homo sapiens, UniProt P11229).
T1 sequence (P11229 1-460): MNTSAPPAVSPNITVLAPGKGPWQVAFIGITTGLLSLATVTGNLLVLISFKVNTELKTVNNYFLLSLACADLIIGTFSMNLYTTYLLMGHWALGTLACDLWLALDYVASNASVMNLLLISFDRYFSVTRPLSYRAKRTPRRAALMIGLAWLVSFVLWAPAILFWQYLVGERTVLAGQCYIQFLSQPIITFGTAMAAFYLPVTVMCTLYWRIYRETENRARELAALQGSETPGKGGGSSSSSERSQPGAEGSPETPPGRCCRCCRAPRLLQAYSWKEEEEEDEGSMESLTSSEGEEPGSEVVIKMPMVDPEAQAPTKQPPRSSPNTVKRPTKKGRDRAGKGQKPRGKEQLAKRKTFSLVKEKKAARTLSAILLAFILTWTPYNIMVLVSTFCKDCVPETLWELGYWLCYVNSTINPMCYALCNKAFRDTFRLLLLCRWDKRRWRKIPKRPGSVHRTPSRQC
Put plainly: In vitro functional assay of muscarinic acetylcholine receptor activity (aequorin calcium flux, reversal of EC80 acetylcholine response). Type of experiment: cell-based. The settings on record: CHO-K1 cells stably expressing human M1 receptor with aequorin; acetylcholine at EC80; calcium flux (luminescence); read-out: M1 IC50. The procedure, abridged:
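Antagonist mode: compound (final 0.1% DMSO) and coelenterazine-loaded M1/aequorin CHO-K1 cells incubated 30 min in the dark before EC80 acetylcholine addition. Calcium flash integrated as 40 s luminescence AUC; IC50 derived from dose-response curves.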

For the molecule `COc1c(F)cccc1C1(NCC(=O)N2CC3CCC(C2)N3c2ccc(C#N)cn2)CC1` [Example 77, 6-(3-((1-(3-fluoro-2-methoxyphenyl)cyclopropyl)glycyl)-3,8-diazabicyclo[3.2.1]octan-8-yl)nicotinonitrile], the IC50 was below 10 nM.
As to `N#Cc1ccc(N2C3COCC2CN(C(=O)CNC2(c4ccc(F)cc4F)CC2)C3)nc1` [Example 78, 6-(7-((1-(2,4-difluorophenyl)cyclopropyl)glycyl)-3-oxa-7,9-diazabicyclo[3.3.1]nonan-9-yl)nicotinonitrile], the IC50 lay within 100 to 1000 nM.
Under `N#Cc1ccc(N2C3CC2CN(C(=O)CNC2(c4ccc(F)cc4F)CC2)C3)nc1` [Example 79, 6-(3-((1-(2,4-difluorophenyl)cyclopropyl)glycyl)-3,6-diazabicyclo[3.1.1]heptan-6-yl)nicotinonitrile] stands 1000 to 10000 nM.
Consider `N#Cc1ccc(N2C[C@H]3C[C@@H]2CN3C(=O)CNC2(c3ccc(F)cc3F)CC2)nc1` [Example 80, 6-((1R,4R)-5-((1-(2,4-difluorophenyl)cyclopropyl)glycyl)-2,5-diazabicyclo[2.2.1]heptan-2-yl)nicotinonitrile], for which the IC50 was above 1000 nM.
Under `N#Cc1ccc(N2C[C@H]3CC[C@@H]2CN3C(=O)CNC2(c3ccc(F)cc3F)CC2)nc1` [Example 81, 6-((1R,4R)-5-((1-(2,4-difluorophenyl)cyclopropyl)glycyl)-2,5-diazabicyclo[2.2.2]octan-2-yl)nicotinonitrile] stands above 1000 nM; under `N#Cc1ccc(N2C[C@@H]3C[C@H]2CN3C(=O)CNC2(c3ccc(F)cc3F)CC2)nc1` [Example 82, 6-((1S,4S)-5-((1-(2,4-difluorophenyl)cyclopropyl)glycyl)-2,5-diazabicyclo[2.2.1]heptan-2-yl)nicotinonitrile], above 1000 nM; under `N#Cc1ccc(N2C[C@@H]3CC[C@H]2CN3C(=O)CNC2(c3ccc(F)cc3F)CC2)nc1` [Example 83, 6-((1S,4S)-5-((1-(2,4-difluorophenyl)cyclopropyl)glycyl)-2,5-diazabicyclo[2.2.2]octan-2-yl)nicotinonitrile], 1000 to 10000 nM.
In the case of `N#Cc1cc(N2C3CCC2CN(C(=O)CNC2(c4ccc(F)cc4F)CC2)C3)ccn1` [Example 84, 4-(3-((1-(2,4-difluorophenyl)cyclopropyl)glycyl)-3,8-diazabicyclo[3.2.1]octan-8-yl)picolinonitrile] it was 100 to 1000 nM; in that of `N#Cc1ccc(N2C3CCC2CN(C(=O)CNC2(c4ccc(F)cc4F)CC2)C3)cc1` [Example 85, 4-(3-((1-(2,4-difluorophenyl)cyclopropyl)glycyl)-3,8-diazabicyclo[3.2.1]octan-8-yl)benzonitrile], 10 to 100 nM.
Take `Cc1ccc(N2C3CCC2CN(C(=O)CNC2(c4ccc(F)cc4F)CC2)C3)nn1` [Example 86, 2-((1-(2,4-difluorophenyl)cyclopropyl)amino)-1-(8-(6-methylpyridazin-3-yl)-3,8-diazabicyclo[3.2.1]octan-3-yl)ethan-1-one]: the IC50 was in the range of 1000 to 10000 nM.
In the case of `COc1cccc([C@H](C)NCC(=O)N2CC3CCC(C2)N3c2ccc(C#N)cn2)c1` [Example 92, 6-(3-(((S)-1-(3-methoxyphenyl)ethyl)glycyl)-3,8-diazabicyclo[3.2.1]octan-8-yl)nicotinonitrile] it was below 10 nM.
In the case of `COc1cc([C@H](C)NCC(=O)N2C[C@H]3CC[C@@H](C2)N3c2ccc(C#N)cn2)ccn1` [Example 93, 6-(3-(((S)-1-(2-methoxypyridin-4-yl)ethyl)glycyl)-3,8-diazabicyclo[3.2.1]octan-8-yl)nicotinonitrile] it was below 10 nM; in that of `N#Cc1ccc(N2C3CCC2CN(C(=O)CNC2(c4ccccc4)CC2)C3)nc1` [Example 94, 6-(3-((1-phenylcyclopropyl)glycyl)-3,8-diazabicyclo[3.2.1]octan-8-yl)nicotinonitrile], 1000 to 10000 nM.
On to `N#Cc1ccc(N2C3CCC2CN(C(=O)CNC2(c4cccc(F)c4)CC2)C3)nc1` [Example 95, 6-(3-((1-(3-fluorophenyl)cyclopropyl)glycyl)-3,8-diazabicyclo[3.2.1]octan-8-yl)nicotinonitrile], for which the IC50 is 10 to 100 nM.
With `N#Cc1ccc(N2C3CCC2CN(C(=O)CNC2(c4ccc(F)cc4)CC2)C3)nc1` [Example 96, 6-(3-((1-(4-fluorophenyl)cyclopropyl)glycyl)-3,8-diaabicyclo[3.2.1]octan-8-yl)nicotinonitrile], the concentration for half-maximal inhibition (IC50) was in the range of 100 to 1000 nM.
Under `COc1ccccc1C1(NCC(=O)N2CC3CCC(C2)N3c2ccc(C#N)cn2)CC1` [Example 97, 6-(3-((1-(2-methoxyphenyl)cyclopropyl)glycyl)-3,8-diazabicyclo[3.2.1]octan-8-yl)nicotinonitrile] stands below 10 nM.
Under `COc1cccc(C2(NCC(=O)N3CC4CCC(C3)N4c3ccc(C#N)cn3)CC2)c1` [Example 98] stands below 10 nM; under `N#Cc1ccc(C2(NCC(=O)N3CC4CCC(C3)N4c3ccc(C#N)cn3)CC2)cc1` [Example 100, 6-(3-((1-(4-cyanoplKml)cyclopropyl)glycyl)-3,8-diazabicyclo[3.2.1]oclaii-8-yl)mcotiiiomtrile], above 1000 nM; under `N#Cc1ccc(N2C3CCC2CN(C(=O)CNC2(c4ccccc4Br)CC2)C3)nc1` [Example 101, 6-(3-((1-(2-bromophenyl)cyclopropyl)glycyl)-3,8-diazabicyclo[3.2.1]octan-8-yl)nicotinonitrile], 10 to 100 nM.
Consider `N#Cc1ccc(N2C3CCC2CN(C(=O)CNC2(c4ccncc4)CC2)C3)nc1` [Example 102, 6-(3-((1-(pyridin-4-yl)cyclopropyl)glycyl)-3,8-diazabicyclo[3.2.1]octan-8-yl)nicotinonitrile], for which the IC50 lay within 100 to 1000 nM.
In the case of `COc1cccc(C2(NCC(=O)N3CC4CCC(C3)N4c3ccc(C#N)cn3)CC2)c1F` [Example 103, 6-(3-((1-(2-fluoro-3-methoxyphenyl)cyclopropyl)glycyl)-3,8-diazabicyclo[3.2.1]octan-8-yl)nicotinonitrile] it was 10 to 100 nM.
For the molecule `N#Cc1ccc(N2C3CCC2CN(C(=O)CN2CC(c4ccc(F)cc4)C2)C3)nc1` [Example 105, 6-(3-(2-(3-(4-fluorophenyl)azetidin-1-yl)acetyl)-3,8-diazabicyclo[3.2.1]octan-8-yl)nicotinonitrile], the IC50 is above 1000 nM.
For `N#Cc1ccc(N2C3CCC2CN(C(=O)CNC2(c4cc(F)cc(F)c4)CC2)C3)nc1` [Example 107, 6-(3-((1-(3,5-difluorophenyl)cyclopropyl)glycyl)-3,8-diazabicyclo[3.2.1]octan-8-yl)nicotinonitrile], the IC50 lay in the range of 10 to 100 nM.
Under `COc1ccc(C2(NCC(=O)N3CC4CCC(C3)N4c3ccc(C#N)cn3)CC2)cc1F` [Example 108] stands 100 to 1000 nM; under `COc1cc(C2(NCC(=O)N3CC4CCC(C3)N4c3ccc(C#N)cn3)CC2)ccc1F` [Example 109, 6-(3-((1-(4-fluoro-3-methoxyphenyl)cyclopropyl)glycyl)-3,8-diazabicyclo[3.2.1]octan-8-yl)nicotinonitrile], below 10 nM; under `COc1cc(F)cc(C2(NCC(=O)N3CC4CCC(C3)N4c3ccc(C#N)cn3)CC2)c1` [Example 110, 6-(3-((1-(3-fluoro-5-methoxyphenyl)cyclopropyl)glycyl)-3,8-diazabicyclo[3.2.1]octan-8-yl)nicotinonitrile], below 10 nM.
For `COc1ccc(F)c(C2(NCC(=O)N3CC4CCC(C3)N4c3ccc(C#N)cn3)CC2)c1` [Example 111, 6-(3-((1-(2-fluoro-5-methoxyphenyl)cyclopropyl)glycyl)-3,8-diazabicyclo[3.2.1]octan-8-yl)nicotinonitrile], the IC50 was below 10 nM.
As to `COc1c(F)ccc(C2(NCC(=O)N3CC4CCC(C3)N4c3ccc(C#N)cn3)CC2)c1F` [Example 112, 6-(3-((1-(2,4-difluoro-3-methoxyphenyl)cyclopropyl)glycyl)-3,8-diazabicyclo[3.2.1]octan-8-yl)nicotinonitrile], the IC50 was below 10 nM.
In the case of `COc1cc(C2(NCC(=O)N3CC4CCC(C3)N4c3ccc(C#N)cn3)CC2)c(F)cc1F` [Example 113, 6-(3-((1-(2,4-difluoro-5-methoxyphenyl)cyclopropyl)glycyl)-3,8-diazabicyclo[3.2.1]octan-8-yl)nicotinonitrile], the IC50 was below 10 nM.
With `COc1cccc(C2(NCC(=O)N3CC4CCC(C3)N4c3ccc(C#N)cn3)CCC2)c1` [Example 114, 6-(3-((1-(3-methoxyphenyl)cyclobutyl)glycyl)-3,8-diazabicyclo[3.2.1]octan-8-yl)nicotinonitrile], the IC50 is below 10 nM.
As to `N#Cc1ccc(N2C3CCC2CN(C(=O)CNC2(c4ccc(F)cc4F)CCC2)C3)nc1` [Example 115, 6-(3-((1-(2,4-difluorophenyl)cyclobutyl)glycyl)-3,8-diazabicyclo[3.2.1]octan-8-yl)nicotinonitrile], the 50% inhibitory concentration (IC50) was in the range of 10 to 100 nM.
For `COc1ccc(F)c(C2(NCC(=O)N3CC4CCC(C3)N4c3ccc(C#N)cn3)CCC2)c1` [Example 116, 6-(3-((1-(2-fluoro-5-methoxyphenyl)cyclobutyl)glycyl)-3,8-diazabicyclo[3.2.1]octan-8-yl)nicotinonitrile], the IC50 is 10 to 100 nM.
Turning to `COc1ccc(F)c(C2(NCC(=O)N3CC4CCC(C3)N4c3ccc(C#N)cn3)CCC2)c1F` [Example 117, 6-(3-((1-(2,6-difluoro-3-methoxyphenyl)cyclobutyl)glycyl)-3,8-diazabicyclo[3.2.1]octan-8-yl)nicotinonitrile], the IC50 fell in the range of 100 to 1000 nM.
